According to ChEMBL document CHEMBL1201862, “PubChem BioAssay data set” (2004):
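Cultured in 96-well plates, cells were exposed to test compound for 48 hours across five concentrations. The concentration for 50% growth inhibition is given as GI50.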 Active and inactive are the calls of the source. Rule as the data show it: active = GI50 up to about 1.1 µM and inactive = higher.

Assays:
Assay in all cases: DTP human tumour cell line panel, 48 h
U-251 = tested on: U-251
HCT-116 = tested on: HCT-116
MDA-MB-231 = tested on: MDA-MB-231
SK-MEL-28 = tested on: SK-MEL-28
OVCAR-4 = tested on: OVCAR-4
UACC-257 = tested on: UACC-257
NCI-H226 = tested on: NCI-H226
A498 = tested on: A498
HOP-62 = tested on: HOP-62
UACC-62 = tested on: UACC-62
T47D = tested on: T47D
SF-295 = tested on: SF-295
PC-3 = tested on: PC-3
SNB-75 = tested on: SNB-75
NCI/ADR-RES = tested on: NCI/ADR-RES
OVCAR-3 = tested on: OVCAR-3
MCF7 = tested on: MCF7
SN12C = tested on: SN12C
SW-620 = tested on: SW-620
SR = tested on: SR

Structure (SMILES)	GI50 (U-251)	GI50 (HCT-116)	GI50 (MDA-MB-231)	GI50 (SK-MEL-28)	GI50 (OVCAR-4)	GI50 (UACC-257)	GI50 (NCI-H226)	GI50 (A498)	GI50 (HOP-62)	GI50 (UACC-62)	GI50 (T47D)	GI50 (SF-295)	GI50 (PC-3)	GI50 (SNB-75)	GI50 (NCI/ADR-RES)	GI50 (OVCAR-3)	GI50 (MCF7)	GI50 (SN12C)	GI50 (SW-620)	GI50 (SR)
CCCCCCCCCCCCn1c(=O)cc(NCCCC)c2cc3c(NCCCC)cc(=O)n(CCCCCCCCCCCC)c3nc21	> 100 µM (inactive)	> 100 µM (inactive)	> 100 µM (inactive)	> 100 µM (inactive)	> 100 µM (inactive)	> 100 µM (inactive)	> 100 µM (inactive)	> 100 µM (inactive)	53.8 µM (inactive)	> 100 µM (inactive)	> 100 µM (inactive)	> 100 µM (inactive)	> 100 µM (inactive)	> 100 µM (inactive)	> 100 µM (inactive)	> 100 µM (inactive)	> 100 µM (inactive)	> 100 µM (inactive)	–	–
CC[C@H](C)[C@H]1NC(=O)[C@@H](NC(=O)[C@@H](CC(C)C)N(C)C(=O)C2CCCN2C(=O)[C@H](C)O)[C@@H](C)OC(=O)[C@H](Cc2ccccc2)N(C)C(=O)[C@@H]2CCCN2C(=O)[C@H](CC(C)C)NC(=O)[C@@H](C)C(=O)[C@H](C(C)C)OC(=O)C[C@@H]1O (some centres not stated)	< 0.00625 µM (active)	< 0.00625 µM (active)	< 0.00625 µM (active)	< 0.00625 µM (active)	< 0.00625 µM (active)	< 0.00625 µM (active)	< 0.00625 µM (active)	< 0.00625 µM (active)	< 0.00625 µM (active)	< 0.00625 µM (active)	< 0.00625 µM (active)	< 0.00625 µM (active)	< 0.00625 µM (active)	< 0.00625 µM (active)	0.0589 µM (active)	< 0.00625 µM (active)	< 0.00625 µM (active)	< 0.00625 µM (active)	< 0.00625 µM (active)	–
CCCCNc1nc(O)c2[nH]cnc2n1	> 100 µM (inactive)	> 100 µM (inactive)	> 100 µM (inactive)	–	> 100 µM (inactive)	> 100 µM (inactive)	> 100 µM (inactive)	> 100 µM (inactive)	> 100 µM (inactive)	> 100 µM (inactive)	> 100 µM (inactive)	> 100 µM (inactive)	> 100 µM (inactive)	> 100 µM (inactive)	> 100 µM (inactive)	> 100 µM (inactive)	> 100 µM (inactive)	> 100 µM (inactive)	> 100 µM (inactive)	–
COc1ccccc1-c1cc(O)c2ccc(C)nc2n1	–	–	> 100 µM (inactive)	> 100 µM (inactive)	> 100 µM (inactive)	> 100 µM (inactive)	> 100 µM (inactive)	> 100 µM (inactive)	> 100 µM (inactive)	> 100 µM (inactive)	> 100 µM (inactive)	–	–	–	> 100 µM (inactive)	–	47.4 µM (inactive)	> 100 µM (inactive)	50.9 µM (inactive)	–
O/N=C1\CC2(N3CCOCC3)CCC1(c1ccccc1)CC2	> 100 µM (inactive)	> 100 µM (inactive)	–	> 100 µM (inactive)	> 100 µM (inactive)	> 100 µM (inactive)	> 100 µM (inactive)	> 100 µM (inactive)	> 100 µM (inactive)	> 100 µM (inactive)	> 100 µM (inactive)	> 100 µM (inactive)	> 100 µM (inactive)	> 100 µM (inactive)	> 100 µM (inactive)	> 100 µM (inactive)	> 100 µM (inactive)	> 100 µM (inactive)	> 100 µM (inactive)	> 100 µM (inactive)
OCC(O)C(O)C(C=NNc1ncnc2ccc(Br)cc12)=NNc1ncnc2ccc(Br)cc12 (configuration not stated)	1.28 µM (inactive)	0.404 µM (active)	1.26 µM (inactive)	–	0.435 µM (active)	3.52 µM (inactive)	2.12 µM (inactive)	26 µM (inactive)	5.12 µM (inactive)	–	0.413 µM (active)	4.74 µM (inactive)	4.73 µM (inactive)	5.82 µM (inactive)	–	0.344 µM (active)	0.479 µM (active)	6.84 µM (inactive)	–	0.579 µM (active)
CCCCCCC(C)CC(CCCCCC)NCCOC(=O)c1ccc([N+](=O)[O-])cc1 (configuration not stated)	13.4 µM (inactive)	11.7 µM (inactive)	10.4 µM (inactive)	12.6 µM (inactive)	11.7 µM (inactive)	9.46 µM (inactive)	14.1 µM (inactive)	–	16.3 µM (inactive)	14.5 µM (inactive)	15.6 µM (inactive)	11.7 µM (inactive)	–	14.4 µM (inactive)	21.3 µM (inactive)	–	14.1 µM (inactive)	12.4 µM (inactive)	13.6 µM (inactive)	–
CCOC(=O)CCN1C(=O)C(=O)N(c2ccc(OC)cc2)C1=S	> 100 µM (inactive)	> 100 µM (inactive)	> 100 µM (inactive)	> 100 µM (inactive)	63 µM (inactive)	> 100 µM (inactive)	25.6 µM (inactive)	> 100 µM (inactive)	> 100 µM (inactive)	16 µM (inactive)	> 100 µM (inactive)	> 100 µM (inactive)	> 100 µM (inactive)	> 100 µM (inactive)	> 100 µM (inactive)	–	–	> 100 µM (inactive)	> 100 µM (inactive)	> 100 µM (inactive)
